Source: US20260240878A1, “PTP1B/TC-PTP DUAL INHIBITORS AND PROTEIN DEGRADERS” (Purdue Research Foundation, priority 2023, published 2026)
*1 amine or outer side, *2 acyl side, *3 side chain or, on linkers, in order; H or OH if unused. Where a SMILES comes first, the peptide text is derived from it. [ ]: non-standard residue; d: D form. The star is where a group is joined. NHCH2(1,3-C6H4)CH2CO = O=C(Cc1cccc(CN[*:1])c1)[*:2]; F2Pmp = N[C@@H](Cc1ccc(C(F)(F)P(=O)(O)O)cc1)C(=O)O; Phenylacetyl(4-OH,3-OMe) = COc1cc(CC(=O)*)ccc1O; Benzoyl(3-Br,4-Me) = Cc1ccc(C(=O)*)cc1Br; X1 = Cc1ncsc1-c1ccc([C@H](C)N*)cc1; Hyp = O=C(O)[C@@H]1C[C@@H](O)CN1; Tle = CC(C)(C)[C@H](N)C(=O)O

Experiments:
PTP1B and TC-PTP [1] = assay: PTP1B/TC-PTP degradation and pJAK1/2 elevation in MEF cells; format: cell-based, mouse; settings: 500 nM, 16 hours
Description: Deletion of TC-PTP or PTP1B abolished the compound 47-induced phosphorylation of the TC-PTP substrate JAK1 or the PTP1B substrate JAK2. Thus, compound 47 efficiently amplifies cellular […] signaling by degrading PTP1B and TC-PTP. U2OS cells were treated with DMSO or 0.2 μM compound 47 for 16 hours and stimulated with 20 ng/ml IFN-γ for 30 minutes. […] DAPI was used to stain the cell nucleus.
The target engagement by compound 47 inside the cell was ascertained. As negative regulators of IFN-γ signaling, PTP1B and TC-PTP dephosphorylate JAK2 at Y1007/Y1008 and JAK1 at Y1034/Y1035, respectively. In addition, TC-PTP can also directly dephosphorylate STAT family members, including STAT1 and STAT3, in the nucleus to comprehensively attenuate IFN signaling. […] In contrast, the addition of compound 47 to PTP1B^−/− MEF cells further increased the IFN-γ mediated TC-PTP substrate pJAK1/Y1034/Y1035 level with no alteration of PTP1B substrate JAK2/Y1007/Y1008 phosphorylation.

PTP1B and TC-PTP [2] = assay: Immunofluorescence of PTP1B and TC-PTP in U2OS cells; format: cell-based; settings: 1 μM, 3 hours and 24 hours
Description: MG132 (20 μM) was used along with compound 47 to block PTP1B and TC-PTP degradation.

PTP1B [3] = biological target: T1, PTP1B (Homo sapiens, UniProt P18031); assay: Degradation assay in HEK293 cells (immunoblotting); format: cell-based; parameters: endogenous in cells; host or cells: HEK293; settings: 0.2 μM degrader, 16 hours
T1 sequence (P18031 1-435): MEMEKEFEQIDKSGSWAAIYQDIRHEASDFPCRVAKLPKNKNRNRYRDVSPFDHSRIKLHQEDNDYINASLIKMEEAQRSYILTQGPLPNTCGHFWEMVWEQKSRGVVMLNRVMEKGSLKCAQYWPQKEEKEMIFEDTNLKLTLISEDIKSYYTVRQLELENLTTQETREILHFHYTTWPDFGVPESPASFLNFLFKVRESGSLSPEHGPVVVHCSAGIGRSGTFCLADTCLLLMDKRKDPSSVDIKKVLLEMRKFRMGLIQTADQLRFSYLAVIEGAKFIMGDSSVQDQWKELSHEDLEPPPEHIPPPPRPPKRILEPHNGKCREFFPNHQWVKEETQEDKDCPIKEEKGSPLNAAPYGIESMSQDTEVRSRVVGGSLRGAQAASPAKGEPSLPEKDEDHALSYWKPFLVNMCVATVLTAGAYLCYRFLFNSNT

TC-PTP = biological target: T2, TC-PTP (Homo sapiens, UniProt P17706); assay: PTP activity assay with pNPP substrate (IC50, Ki, mode of inhibition); format: biochemical; settings: pNPP 2 mM, pH 7.0, 25° C.; read-out: IC50, nM TC-PTP
T2 sequence (P17706 1-415): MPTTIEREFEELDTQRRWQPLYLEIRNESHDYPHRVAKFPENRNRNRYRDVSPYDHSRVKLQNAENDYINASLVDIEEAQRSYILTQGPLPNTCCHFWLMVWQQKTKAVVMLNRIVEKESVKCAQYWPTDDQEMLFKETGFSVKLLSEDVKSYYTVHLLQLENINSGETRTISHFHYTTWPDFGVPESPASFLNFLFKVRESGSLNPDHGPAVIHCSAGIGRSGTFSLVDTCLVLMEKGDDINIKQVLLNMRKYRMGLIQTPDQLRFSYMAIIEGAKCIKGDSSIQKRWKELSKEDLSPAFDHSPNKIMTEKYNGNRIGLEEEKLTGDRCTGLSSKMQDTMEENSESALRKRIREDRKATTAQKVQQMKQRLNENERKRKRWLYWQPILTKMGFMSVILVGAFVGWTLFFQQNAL
Outline: (§1)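 Hydrolysis of pNPP measured spectrophotometrically in pH 7.0 DMG buffer (EDTA, NaCl, DTT, BSA) at 25 °C, 0.4 nM enzyme. IC50 at 2 mM pNPP (Km) over an inhibitor titration; mode of inhibition and Ki from rates across varied pNPP and inhibitor levels, fitted to enzyme kinetic models.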

PTP1B [4] = biological target: T1, PTP1B; assay: as above; format: biochemical; settings: pNPP 2 mM, pH 7.0, 25° C.; read-out: IC50, nM PTP1B
Outline: as §1

## COc1cc(CC(=O)N[C@@H](Cc2ccccc2)C(=O)N[C@@H](Cc2ccc(C(F)(F)P(=O)(O)O)cc2)C(=O)N[C@@H](CCCCNC(=O)c2ccc(C)c(Br)c2)C(=O)NCc2cccc(CC(=O)N[C@H](C(=O)N3C[C@H](O)C[C@H]3C(=O)N[C@@H](C)c3ccc(-c4scnc4C)cc3)C(C)(C)C)c2)ccc1O [Compound 47, ((4-((S)-3-(((S)-6-(3-bromo-4-methylbenzamido)-1-((3-(2-(((S)-1-((2S,4R)-4-hydroxy-2-(((S)-1-(4-(4-methylthiazol-5-yl)phenyl)ethyl)carbamoyl)pyrrolidin-1-yl)-3,3-dimethyl-1-oxobutan-2-yl)amino)-2-oxoethyl)benzyl)amino)-1-oxohexan-2-yl)amino)-2-((S)-2-(2-(4-hydroxy-3-methoxyphenyl)acetamido)-3-phenylpropanamido)-3-oxopropyl)phenyl)difluoromethyl)phosphonic Acid] ({Phenylacetyl(4-OH,3-OMe)}-F[F2Pmp]K(Benzoyl(3-Br,4-Me))[NHCH2(1,3-C6H4)CH2CO][Tle][Hyp]-X1)
PTP1B and TC-PTP [1]
  IFN-γ stimulated JAK2 and JAK1 phosphorylation: augmented
  PTP1B and TC-PTP removal: complete removal
PTP1B and TC-PTP [2]
  PTP1B and TC-PTP degradation by immunofluorescence: degraded cytoplasm-localized PTP1B and both nucleus- and cytoplasm-localized TC-PTP
PTP1B [3]
  % Protein Degradation PTP1B: 95%
TC-PTP
  IC50: 30.1 ± 2.3 nM
PTP1B [4]
  IC50: 24.2 ± 1.7 nM
